From patent EP4635500A1, “THERAPEUTIC AGENT FOR BACTERIAL INFECTION” (Sumitomo Pharma Co., Ltd., priority 2022, dated 2024)
Several values for one entry are separate records, joined by “and”; a condition that tells them apart may be missing. Equal entries are not always repeated. Where two headings read alike, the source gives them in different places.

Key:
A. baumannii = test: MIC, broth microdilution, CDC/FDA Antibiotic Resistance Isolate Bank (Example 7, Tables 9, 13, 14); type: cell-based, Acinetobacter baumannii
Enterobacterales = test: MIC, broth microdilution, CDC/FDA Antibiotic Resistance Isolate Bank (Example 7, Tables 8, 11, 12); type: cell-based
[1] = 154 strains of Enterobacterales

For colistin, the MIC (A. baumannii) was 0.5 µg/mL and 1 µg/mL, the MIC50 (A. baumannii; 55 isolates of A. baumannii) was 1 µg/mL and the MIC80 (A. baumannii; 55 isolates of A. baumannii) was 2 µg/mL. For the same substance, the MIC90 (A. baumannii; 55 isolates of A. baumannii) was 2 µg/mL, the MIC (A. baumannii; A. baumannii KUB No. 5567, AR Bank #70, OXA-58, OXA-100) was 0.25 µg/mL and the MIC (A. baumannii; A. baumannii KUB No. 5575, AR Bank #78, OXA-71) was 1 µg/mL. The MIC (A. baumannii; A. baumannii KUB No. 5580, AR Bank #83, OXA-23, OXA-69, NDM-1) was 1 µg/mL, the MIC (A. baumannii; A. baumannii KUB No. 5585, AR Bank #88, OXA-64, NDM-1) was 1 µg/mL and the MIC (A. baumannii; A. baumannii KUB No. 5598, AR Bank #101, OXA-24, OXA-65) was 1 µg/mL. It also gave an MIC (A. baumannii; A. baumannii KUB No. 5599, AR Bank #102, OXA-66) of 1 µg/mL, an MIC (A. baumannii; A. baumannii KUB No. 5706, AR Bank #273, OXA-23, OXA-66) of 1 µg/mL and an MIC (A. baumannii; A. baumannii KUB No. 5707, AR Bank #274, OXA-66, OXA-72) of 0.5 µg/mL. It also gave an MIC (A. baumannii; A. baumannii KUB No. 5708, AR Bank #275, OXA-23, OXA-66) of 1 µg/mL, an MIC (A. baumannii; A. baumannii KUB No. 5709, AR Bank #276, no carbapenemase genes (-)) of 2 µg/mL and an MIC (A. baumannii; A. baumannii KUB No. 5710, AR Bank #277, OXA-24, OXA-65) of 0.5 µg/mL. It also gave an MIC (A. baumannii; A. baumannii KUB No. 5711, AR Bank #278, OXA-23, OXA-66) of 1 µg/mL, an MIC (A. baumannii; A. baumannii KUB No. 5712, AR Bank #279, OXA-23, OXA-66) of 1 µg/mL and an MIC (A. baumannii; A. baumannii KUB No. 5713, AR Bank #280, OXA-66) of 1 µg/mL. The MIC (A. baumannii; A. baumannii KUB No. 5714, AR Bank #281, OXA-82) was 1 µg/mL, the MIC (A. baumannii; A. baumannii KUB No. 5715, AR Bank #282, OXA-23, OXA-66) was 1 µg/mL and the MIC (A. baumannii; A. baumannii KUB No. 5716, AR Bank #283, OXA-23, OXA-66) was 1 µg/mL. It also gave an MIC (A. baumannii; A. baumannii KUB No. 5717, AR Bank #284, OXA-24, OXA-65) of 1 µg/mL, an MIC (A. baumannii; A. baumannii KUB No. 5718, AR Bank #285, OXA-24, OXA-65) of 0.5 µg/mL and an MIC (A. baumannii; KUB No. 5719, AR Bank #286) of 1 µg/mL. The MIC (A. baumannii; KUB No. 5720, AR Bank #287) was 1 µg/mL, the MIC (A. baumannii; KUB No. 5721, AR Bank #288) was over 64 µg/mL and the MIC (A. baumannii; KUB No. 5722, AR Bank #259) was 2 µg/mL. The MIC (A. baumannii; KUB No. 5723, AR Bank #290) was 1 µg/mL, the MIC (A. baumannii; KUB No. 5724, AR Bank #291) was 1 µg/mL and the MIC (A. baumannii; KUB No. 5725, AR Bank #292) was 1 µg/mL. The MIC (A. baumannii; KUB No. 5726, AR Bank #293) was 1 µg/mL, the MIC (A. baumannii; KUB No. 5727, AR Bank #294) was 1 µg/mL and the MIC (A. baumannii; KUB No. 5728, AR Bank #295) was 1 µg/mL. It also gave an MIC (A. baumannii; KUB No. 5729, AR Bank #296) of 2 µg/mL, an MIC (A. baumannii; KUB No. 5730, AR Bank #297) of 2 µg/mL and an MIC (A. baumannii; KUB No. 5731, AR Bank #298) of 0.5 µg/mL. For the same substance, the MIC (A. baumannii; KUB No. 5732, AR Bank #299) was 2 µg/mL, the MIC (A. baumannii; KUB No. 5733, AR Bank #300) was 1 µg/mL and the MIC (A. baumannii; KUB No. 5734, AR Bank #301) was 1 µg/mL. For the same substance, the MIC (A. baumannii; KUB No. 5735, AR Bank #302) was 1 µg/mL, the MIC (A. baumannii; KUB No. 5736, AR Bank #303) was over 64 µg/mL and the MIC (A. baumannii; KUB No. 5737, AR Bank #304) was 4 µg/mL. The MIC (A. baumannii; KUB No. 5738, AR Bank #305) was 2 µg/mL, the MIC (A. baumannii; KUB No. 5739, AR Bank #306) was 1 µg/mL and the MIC (A. baumannii; KUB No. 5740, AR Bank #307) was 2 µg/mL. For the same substance, the MIC (A. baumannii; KUB No. 5741, AR Bank #308) was 1 µg/mL, the MIC (A. baumannii; KUB No. 5742, AR Bank #309) was 2 µg/mL and the MIC (A. baumannii; KUB No. 5743, AR Bank #310) was 1 µg/mL. The MIC (A. baumannii; KUB No. 5744, AR Bank #311) was 1 µg/mL, the MIC (A. baumannii; KUB No. 5745, AR Bank #312) was 1 µg/mL and the MIC (A. baumannii; KUB No. 5746, AR Bank #313) was 2 µg/mL. It also gave an MIC50 (Enterobacterales; [1]) of 0.5 µg/mL, an MIC80 (Enterobacterales; [1]) of 8 µg/mL and an MIC90 (Enterobacterales; [1]) of over 64 µg/mL. For the same substance, the MIC (Enterobacterales; Citrobacter fremidii, KUB No. 5613, AR Bank # 116) was 1 µg/mL, the MIC (Enterobacterales; Enterobacter aerogenes, KUB No. 5559, AR Bank # 62) was 8 µg/mL and the MIC (Enterobacterales; Enterobacter aerogenes, KUB No. 5571, AR Bank # 74) was 0.5 µg/mL. For the same substance, the MIC (Enterobacterales; Enterobacter cloacae KUB No. 5792, AR Bank #448) was 0.5 µg/mL, the MIC (Enterobacterales; Enterobacter cloacae KUB No. 5807, AR Bank #501) was 0.5 µg/mL and the MIC (Enterobacterales; Enterobacter cloacae KUB No. 5808, AR Bank #502) was 0.5 µg/mL. It also gave an MIC (Enterobacterales; Enterobacter cloacae complex, KUB No. 5661, AR Bank # 164) of 0.5 µg/mL, an MIC (Enterobacterales; Enterobacter cloacae group, KUB No. 5629, AR Bank # 132) of 1 µg/mL and an MIC (Enterobacterales; Enterobacter cloacae, KUB No. 5529, AR Bank# 32) of 0.5 µg/mL. It also gave an MIC (Enterobacterales; Enterobacter cloacae, KUB No. 5535, AR Bank# 38) of 0.5 µg/mL, an MIC (Enterobacterales; Enterobacter cloacae, KUB No. 5557, AR Bank# 60) of 0.5 µg/mL and an MIC (Enterobacterales; Enterobacter cloacae, KUB No. 5562, AR Bank # 65) of 0.5 µg/mL. It also gave an MIC (Enterobacterales; Enterobacter cloacae, KUB No. 5570, AR Bank # 73) of 8 µg/mL, an MIC (Enterobacterales; Enterobacter cloacae, KUB No. 5590, AR Bank # 93) of 1 µg/mL and an MIC (Enterobacterales; Enterobacter cloacae, KUB No. 5660, AR Bank # 163) of 8 µg/mL.
